Source: US20240360119A1, “SMALL MOLECULE UREA DERIVATIVES AS STING ANTAGONISTS” (CURADEV PHARMA PVT. LTD., priority 2021, published 2024)

System: STING (IRF pathway reporter in THP1-Dual™ cells, THP-1 (HAQ))
Test: Reporter gene expression assay in THP-1 cells (THP1-Dual, IRF pathway Lucia luciferase, 2′,3′-cGAMP stimulation)
Format: cell-based, human
Conditions: 10 min preincubation, 5 μM 2′,3′-cGAMP, 20 hr, IRF pathway luciferase (QUANTI-Luc), IC50 range class
Procedure: THP1-Dual™ cells (Invivogen) were derived from the human THP-1 monocyte cell line by stable integration of two inducible reporter constructs. As a result, THP1-Dual™ cells allow the simultaneous study of the IRF pathway, by assessing the activity of a secreted luciferase (Lucia) and the NF-κB pathway, by monitoring the activity of secreted SEAP. 5×10^4 THP1-Dual™ cells were seeded in 384-well plates in growth medium and preincubated with novel compounds for 10 minutes followed by stimulation with 5 μM 2′,3′-cGAMP. After 20 hr of stimulation the supernatant was removed and the IRF pathway reporter protein was readily measured in the cell culture supernatant using QUANTI-Luc™ (Invivogen), a luciferase detection reagent on a Spectramax i3X luminometer.
In the tables below, IC50 value ranges for exemplary compounds are given. The IC50 ranges are indicated as “A” for values less than or equal to 1 μM, “B” for values greater than 1 μM and less than or equal to 10 μM, and “C” for values greater than 10 μM.

`CN(C)C(=O)CC(NC(=O)Nc1ccc2cc[nH]c2c1)c1ccc2c(c1)N(Cc1ccccc1)CCS2` (single isomer, unassigned) [Example 6, 3-(3-(1H-indol-6-yl)ureido)-3-(4-benzyl-3,4-dihydro-2H-benzo[b][1,4]thiazin-6-yl)-N,N-dimethylpropanamide] and `O=C(Nc1ccc2cc[nH]c2c1)NC(CO)c1ccc2c(c1)N(Cc1ccccc1)CCS2` (single isomer, unassigned) [Example 13, 1-(1-(4-benzyl-3,4-dihydro-2H-benzo[b][1,4]thiazin-6-yl)-2-hydroxyethyl)-3-(1H-indol-6-yl)urea] cannot be ordered by IC50: 1 to 10 µM for the first, at most 1 µM for the second.

Compound `O=C(Nc1ccc2cc[nH]c2c1)NC(CC(O)CO)c1ccc2c(c1)N(Cc1ccccc1)CCO2` (single isomer, unassigned) [Example 8, 1-(1-(4-Benzyl-3,4-dihydro-2H-benzo[b][1,4]oxazin-6-yl)-3,4-dihydroxybutyl)-3-(1H-indol-6-yl)urea] has an IC50 of over 10 µM.

Same assay, conditions: Homo sapiens, 10 min preincubation, 5 μM 2′,3′-cGAMP, 20 hr, IRF pathway luciferase (QUANTI-Luc), IC50 range class

`CN(C)C(=O)CC(NC(=O)Nc1ccc2cc[nH]c2c1)c1ccc2c(c1)N(Cc1ccccc1)CCS2` (racemic) [Example 4, 3-(3-(1H-indol-6-yl)ureido)-3-(4-benzyl-3,4-dihydro-2H-benzo[b][1,4]thiazin-6-yl)-N,N-dimethylpropanamide] and `CON(C)C(=O)CC(NC(=O)Nc1ccc2cc[nH]c2c1)c1ccc2c(c1)N(Cc1ccccc1)CCS2` (centres unmarked) [Example 28, 3-(3-(1H-indol-6-yl)ureido)-3-(4-benzyl-3,4-dihydro-2H-benzo[b][1,4]thiazin-6-yl)-N-methoxy-N-methylpropanamide] fall in the same range of IC50: 1 to 10 µM for the first, 1 to 10 µM for the second.

First: O=C(Nc1ccc2cc[nH]c2c1)NC(CO)c1ccc2c(c1)N(Cc1ccccc1)CCS2 (racemic) [Example 11, 1-(1-(4-Benzyl-3,4-dihydro-2H-benzo[b][1,4]thiazin-6-yl)-2-hydroxyethyl)-3-(1H-indol-6-yl)urea]
Second: O=C(Nc1ccc2cc[nH]c2c1)NC(CCO)c1ccc2c(c1)N(Cc1ccccc1)CCS2 (centres unmarked) [Example 24, 1-(1-(4-benzyl-3,4-dihydro-2H-benzo[b][1,4]thiazin-6-yl)-3-hydroxypropyl)-3-(1H-indol-6-yl)urea]
The IC50 of the first is lower: at most 1 µM for the first, over 10 µM for the second. The first is the more potent here.

`CN(C)C(=O)CC(NC(=O)Nc1ccc2cc[nH]c2c1)c1ccc2c(c1)N(Cc1ccccc1)CCS2` (single isomer, unassigned) [Example 5, 3-(3-(1H-indol-6-yl)ureido)-3-(4-benzyl-3,4-dihydro-2H-benzo[b][1,4]thiazin-6-yl)-N,N-dimethylpropanamide] and `CNC(=O)CC(NC(=O)Nc1ccc2cc[nH]c2c1)c1ccc2c(c1)N(Cc1ccccc1)CCS2` (centres unmarked) [Example 26, 3-(3-(1H-indol-6-yl)ureido)-3-(4-benzyl-3,4-dihydro-2H-benzo[b][1,4]thiazin-6-yl)-N-methylpropanamide] fall in the same range of IC50: 1 to 10 µM for the first, 1 to 10 µM for the second.

`O=C(Nc1ccc2cc[nH]c2c1)NC(CC(O)CO)c1ccc2c(c1)N(Cc1ccccc1)CCO2` (single isomer, unassigned) [Example 7, 1-(1-(4-Benzyl-3,4-dihydro-2H-benzo[b][1,4]oxazin-6-yl)-3,4-dihydroxybutyl)-3-(1H-indol-6-yl)urea] and `O=C(Nc1ccc2cc[nH]c2c1)NC(CC(O)CO)c1ccc2c(c1)N(Cc1ccccc1)CC[S+]2[O-]` (centres unmarked) [Example 25, 1-(1-(4-benzyl-1-oxido-3,4-dihydro-2H-benzo[b][1,4]thiazin-6-yl)-3,4-dihydroxybutyl)-3-(1H-indol-6-yl)urea] cannot be ordered by IC50: over 10 µM for the first, over 10 µM for the second.

First: O=C(Nc1ccc2cc[nH]c2c1)NC(CO)c1ccc2c(c1)N(Cc1ccccc1)CCS2 (single isomer, unassigned) [Example 12, 1-(1-(4-benzyl-3,4-dihydro-2H-benzo[b][1,4]thiazin-6-yl)-2-hydroxyethyl)-3-(1H-indol-6-yl)urea]
Second: O=C(O)CC(NC(=O)Nc1ccc2cc[nH]c2c1)c1ccc2c(c1)N(Cc1ccccc1)CCS2 (centres unmarked) [Example 10, 3-(3-(1H-Indol-6-yl)ureido)-3-(4-benzyl-3,4-dihydro-2H-benzo[b][1,4]thiazin-6-yl)propanoic acid]
The IC50 of the first is lower: at most 1 µM for the first, over 10 µM for the second.

`O=C(NCc1ccc2c(c1)N(Cc1ccccc1)CCS2)Nc1ccc2cc[nH]c2c1` [Example 1, 1-((4-Benzyl-3,4-dihydro-2H-benzo[b][1,4]thiazin-6-yl)methyl)-3-(1H-indol-6-yl)urea] and `O=C(NCc1ccc2c(c1)SCCN2Cc1ccccc1)Nc1ccc2cc[nH]c2c1` [Example 16, 1-((4-benzyl-3,4-dihydro-2H-benzo[b][1,4]thiazin-7-yl)methyl)-3-(1H-indol-6-yl)urea] cannot be ordered by IC50: at most 1 µM for the first, at most 1 µM for the second.

`O=C(NCc1ccc2c(c1)OCC(=O)N2Cc1ccccc1)Nc1ccc2cc[nH]c2c1` [Example 2, 1-((4-Benzyl-3-oxo-3,4-dihydro-2H-benzo[b][1,4]oxazin-7-yl)methyl)-3-(1H-indol-6-yl)urea] and `O=C(NCc1ccc2c(c1)SCC(=O)N2Cc1ccccc1)Nc1ccc2cc[nH]c2c1` [Example 17, 1-((4-benzyl-3-oxo-3,4-dihydro-2H-benzo[b][1,4]thiazin-7-yl)methyl)-3-(1H-indol-6-yl)urea] cannot be ordered by IC50: 1 to 10 µM for the first, at most 1 µM for the second.

`O=C(NCc1ccc2c(c1)OCCN2Cc1ccccc1)Nc1ccc2cc[nH]c2c1` [Example 3, 1-((4-Benzyl-3,4-dihydro-2H-benzo[b][1,4]oxazin-7-yl)methyl)-3-(1H-indol-6-yl)urea] and `O=C(NCc1ccc2c(c1)N(Cc1ccccc1)CCO2)Nc1ccc2cc[nH]c2c1` [Example 15, 1-((4-benzyl-3,4-dihydro-2H-benzo[b][1,4]oxazin-6-yl)methyl)-3-(1H-indol-6-yl)urea] cannot be ordered by IC50: at most 1 µM for the first, at most 1 µM for the second.

`C=CCC(NC(=O)Nc1ccc2cc[nH]c2c1)c1ccc2c(c1)N(Cc1ccccc1)CCS2` (centres unmarked) [Example 9, 1-(1-(4-Benzyl-3,4-dihydro-2H-benzo[b][1,4]thiazin-6-yl)but-3-en-1-yl)-3-(1H-indol-6-yl)urea] and `NC(=O)CC(NC(=O)Nc1ccc2cc[nH]c2c1)c1ccc2c(c1)N(Cc1ccccc1)CCS2` (centres unmarked) [Example 23, 3-(3-(1H-indol-6-yl)ureido)-3-(4-benzyl-3,4-dihydro-2H-benzo[b][1,4]thiazin-6-yl)propanamide] cannot be ordered by IC50: at most 1 µM for the first, at most 1 µM for the second.

`O=C(NCc1ccc2c(c1)N(c1ccccc1)CCS2)Nc1ccc2cc[nH]c2c1` [Example 14, 1-(1H-Indol-6-yl)-3-((4-phenyl-3,4-dihydro-2H-benzo[b][1,4]thiazin-6-yl)methyl)urea] and `O=C(NCc1ccc2c(c1)SCCN2c1ccccc1)Nc1ccc2cc[nH]c2c1` [Example 20, 1-(1H-indol-6-yl)-3-((4-phenyl-3,4-dihydro-2H-benzo[b][1,4]thiazin-7-yl)methyl)urea] cannot be ordered by IC50: at most 1 µM for the first, 1 to 10 µM for the second.

`O=C(NCc1ccc2c(c1)N(Cc1ccccc1)C(=O)CS2)Nc1ccc2cc[nH]c2c1` [Example 18, 1-((4-benzyl-3-oxo-3,4-dihydro-2H-benzo[b][1,4]thiazin-6-yl)methyl)-3-(1H-indol-6-yl)urea] and `O=C(NCc1ccc2c(c1)N(c1ccccc1)CCO2)Nc1ccc2cc[nH]c2c1` [Example 19, 1-(1H-indol-6-yl)-3-((4-phenyl-3,4-dihydro-2H-benzo[b][1,4]oxazin-6-yl)methyl)urea] cannot be ordered by IC50: 1 to 10 µM for the first, at most 1 µM for the second.

Compared with `O=C(NCc1ccc2c(c1)OCCN2c1ccccc1)Nc1ccc2cc[nH]c2c1` [Example 21, 1-(1H-indol-6-yl)-3-((4-phenyl-3,4-dihydro-2H-benzo[b][1,4]oxazin-7-yl)methyl)urea], `O=C(Nc1ccc2cc[nH]c2c1)NC(CCN1CCOCC1)c1ccc2c(c1)N(Cc1ccccc1)CCS2` (centres unmarked) [Example 22, 1-(1-(4-benzyl-3,4-dihydro-2H-benzo[b][1,4]thiazin-6-yl)-3-morpholinopropyl)-3-(1H-indol-6-yl)urea] is higher in IC50: at most 1 µM for the first, over 10 µM for the second. The first is the more potent here.

`O=C(Nc1ccc2cc[nH]c2c1)NC(CC(=O)N1CCCC1)c1ccc2c(c1)N(Cc1ccccc1)CCS2` (centres unmarked) [Example 27, 1-(1-(4-benzyl-3,4-dihydro-2H-benzo[b][1,4]thiazin-6-yl)-3-oxo-3-(pyrrolidin-1-yl)propyl)-3-(1H-indol-6-yl)urea] and `O=C(Nc1ccc2cc[nH]c2c1)NC(CC(=O)N1CCOCC1)c1ccc2c(c1)N(Cc1ccccc1)CCS2` (centres unmarked) [Example 30, 1-(1-(4-benzyl-3,4-dihydro-2H-benzo[b][1,4]thiazin-6-yl)-3-morpholino-3-oxopropyl)-3-(1H-indol-6-yl)urea] fall in the same range of IC50: 1 to 10 µM for the first, 1 to 10 µM for the second.

`O=C(Nc1ccc2cc[nH]c2c1)NC(CC(=O)N1CCC(O)C1)c1ccc2c(c1)N(Cc1ccccc1)CCS2` (centres unmarked) [Example 29, 1-(1-(4-benzyl-3,4-dihydro-2H-benzo[b][1,4]thiazin-6-yl)-3-(3-hydroxypyrrolidin-1-yl)-3-oxopropyl)-3-(1H-indol-6-yl)urea] and `CN(C(=O)CC(NC(=O)Nc1ccc2cc[nH]c2c1)c1ccc2c(c1)N(Cc1ccccc1)CCS2)C1CC1` (centres unmarked) [Example 32, 3-(3-(1H-indol-6-yl)ureido)-3-(4-benzyl-3,4-dihydro-2H-benzo[b][1,4]thiazin-6-yl)-N-cyclopropyl-N-methylpropanamide] cannot be ordered by IC50: over 10 µM for the first, over 10 µM for the second.

For `CN(CCO)C(=O)CC(NC(=O)Nc1ccc2cc[nH]c2c1)c1ccc2c(c1)N(Cc1ccccc1)CCS2` (centres unmarked) [Example 31, 3-(3-(1H-indol-6-yl)ureido)-3-(4-benzyl-3,4-dihydro-2H-benzo[b][1,4]thiazin-6-yl)-N-(2-hydroxyethyl)-N-methylpropanamide], the IC50 was 1 to 10 µM.
